Laboratory results published in PubChem BioAssay AID1963847 (Molecular Pharmacology Branch, DTP, NCI, 2024).
Where “and” joins values, the source holds several entries; their conditions need not be identical. Equal values may be shown once.

Test system: 415267-285-R-J2-PDC complex spheroid viability
Assay: Anticancer human tumor 415267-285-R-J2-PDC patient-derived breast carcinoma cell line growth inhibition [POLQ]
Conditions: for viability, T/C: stronger effect = lower value
Protocol: Multicellular complex tumor spheroid response to Polymerase (POL) inhibitors (novobiocin, ART-558, RP6685) in combination with a variety of drugs and investigational agents in selected tumor cell lines
The POL inhibitors (novobiocin, ART-558, and RP6685) were evaluated both individually and in combination with standard of care and investigational anticancer small molecules within a complex spheroid model of solid tumors. . Complex spheroids include a stromal component modeled by human endothelial cells (HUVEC) and fibroblasts modeled by human mesenchymal stem cells (MSCs). The concentration ranges selected for each drug and investigational agent were based upon clinically achievable concentrations if the clinical Cmax of the agent was known.
Compounds. The drugs and investigational agents: novobiocin (NSC847541), ART-558 (NSC835418), RP-6685 (NSC848927), peposertib (NSC802822), ceralasertib (NSC780249), elimusertib (NSC800525), camonsertib (NSC841442), AZD-1390 (NSC803789), olaparib (NSC753686), talazoparib (NSC767125), rucaparib (NSC756644), sotorasib (NSC818433), MRTX-1133 (NSC836407), SN-38 (NSC673596), topotecan (NSC609699), epotoside (NSC141540), doxorubicin (NSC123127), gemcitabine (NSC613327), 5-fluorouracil (NSC19893), paclitaxel (NSC125973), vemurafenib (NSC761431), MSA-2 (NSC828583), SN-011 (NSC837082), adavosertib (NSC754352), prexasertib (NSC758257), carboplatin (NSC241240) and oxaliplatin (NSC266046), were obtained from the National Cancer Institute (NCI) Developmental Therapeutics Program Chemical Repository (21). The FDA-approved anticancer drug set is available from the Developmental Therapeutics Program at https://dtp.cancer.gov/organization/dscb/obtaining/. […] The stock solutions were prepared in dimethyl sulfoxide (DMSO, Sigma-Aldrich, St. Louis, MO, cat. D2650), except for the platinum compounds which were prepared in saline (Quality Biological, Gaithersburg, MD, cat. 114-055-101), at 800-fold the tested concentration and stored at -70 degrees C prior to their use. All drugs and investigational agents were tested over a range starting from a high concentration at or near the clinical Cmax and decreasing in half-log increments. If the clinical Cmax for an agent had not been determined, the highest concentration tested was 10 microM, except for SN-38, which was tested at a high concentration of 1 microM.
Cell Culture. All cells were maintained in an incubator at 37 degrees C and 5% CO2 with 95% humidity. The PDC lines were cultured according to standard operating procedures established by the NCI PDMR (https://pdmr.cancer.gov). Table 3 of the manuscript, lists the cell lines along with the number of the three cell types plated to form the mct-spheroids and media for tumor cell growth. After thawing, all PDC lines, except 997537-175-T-J1-PDC and 415267-285-R-J2-PDC, were cultured in Matrigel-coated flasks prepared with a working solution of 1X Ham's F-12 nutrient mix, without supplementation (Thermo Fisher Scientific, cat. 11765054), 100 U/mL penicillin-streptomycin (Thermo Fisher Scientific, cat. 15140122), and 2.5% Matrigel (Corning Inc., Corning, NY, cat. 354248) for the first three passages. The two PDC lines 997537-175-T-J1-PDC and 415267-285-R-J2-PDC were cultured on uncoated flasks. The 857933-349-R-J2-PDC line was cultured in 6C/Colon 1B media containing advanced DMEM/F-12 (Thermo Fisher Scientific, cat. 12634028), 10 mM HEPES (Thermo Fisher Scientific, cat. 15630080), 1X GlutaMAX supplement (Thermo Fisher Scientific, cat. 35050061), 0.1 mg/mL primocin (InvivoGen, San Diego, CA, cat. ant-pm-2), 10% defined fetal bovine serum, heat inactivated (HyClone Laboratories Inc., Logan, UT, cat. SH30070.03HI), 50% L-WRN conditioned media (ATCC, cat. CRL-3276), 1.25 mM N-Acetyl-L-cysteine (Sigma-Aldrich, cat. A9165), 10 mM nicotinamide (Sigma-Aldrich, cat. N0636), 1X B-27 supplement (Thermo Fisher Scientific, cat. 17504044), 1X N-2 supplement (Thermo Fisher Scientific, cat. […]
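Further: spheroids exposed to compounds for one week before readout.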
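Wherever viability, T/C is given: luminescence used as stand-in measure of viable cells; 100% = DMSO vehicle control viability.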

CCc1c2c(nc3ccc(O)cc13)-c1cc3c(c(=O)n1C2)COC(=O)[C@]3(O)CC
viability, T/C (compound 0.00316 µM): 32.2% and 58.6% and 31.9% | viability, T/C (compound 0.01 µM): 9.97% and 8.74% and 13.6% | viability, T/C (compound 0.0316 µM): 5.41% and 4.4% and 6.58% | viability, T/C (compound 0.1 µM): 4.94% and 2.95% and 3.9% | viability, T/C (compound 0.316 µM): 2.72% and 1.83% and 3.74% | viability, T/C (compound 1 µM): 1.69% and 0.99% and 1.42% | IC50 (curve of compound): < 0.00316 µM and 0.00385 µM

CCc1cc2c(N3CCc4c(cc(Cn5ccnc5)cc4-c4cn(C)nc4C(F)(F)F)C3=O)ccnc2c(OC)n1 + COC1C(OC(N)=O)C(O)C(Oc2ccc3c(O)c(NC(=O)c4ccc(O)c(CC=C(C)C)c4)c(=O)oc3c2C)OC1(C)C
IC50 (curve of first compound, second compound 0.0316 µM): > 10 µM | IC50 (curve of first compound, second compound 0.1 µM): > 10 µM | IC50 (curve of first compound, second compound 0.316 µM): > 10 µM | IC50 (curve of first compound, second compound 1 µM): > 10 µM | IC50 (curve of first compound, second compound 3.16 µM): > 10 µM | IC50 (curve of first compound, second compound 10 µM): > 10 µM | viability, T/C (second compound 0.0316 µM, first compound 0.0316 µM): 92.8% | viability, T/C (second compound 0.0316 µM, first compound 0.1 µM): 74.9% | viability, T/C (second compound 0.0316 µM, first compound 0.316 µM): 88% | viability, T/C (second compound 0.0316 µM, first compound 1 µM): 91.1% | viability, T/C (second compound 0.0316 µM, first compound 3.16 µM): 83% | viability, T/C (second compound 0.0316 µM, first compound 10 µM): 66.3% | viability, T/C (second compound 0.1 µM, first compound 0.0316 µM): 89.4% | viability, T/C (second compound 0.1 µM, first compound 0.1 µM): 87% | viability, T/C (second compound 0.1 µM, first compound 0.316 µM): 83.2% | viability, T/C (second compound 0.1 µM, first compound 1 µM): 83.3% | viability, T/C (second compound 0.1 µM, first compound 3.16 µM): 77.6% | viability, T/C (second compound 0.1 µM, first compound 10 µM): 67.6% | viability, T/C (second compound 0.316 µM, first compound 0.0316 µM): 89.8% | viability, T/C (second compound 0.316 µM, first compound 0.1 µM): 90.9% | viability, T/C (second compound 0.316 µM, first compound 0.316 µM): 71.5% | viability, T/C (second compound 0.316 µM, first compound 1 µM): 81% | viability, T/C (second compound 0.316 µM, first compound 3.16 µM): 75.3% | viability, T/C (second compound 0.316 µM, first compound 10 µM): 71.8% | viability, T/C (second compound 1 µM, first compound 0.0316 µM): 88.6% | viability, T/C (second compound 1 µM, first compound 0.1 µM): 89.6% | viability, T/C (second compound 1 µM, first compound 0.316 µM): 79.5% | viability, T/C (second compound 1 µM, first compound 1 µM): 74.9% | viability, T/C (second compound 1 µM, first compound 3.16 µM): 79.5% | viability, T/C (second compound 1 µM, first compound 10 µM): 63.2% | viability, T/C (second compound 3.16 µM, first compound 0.0316 µM): 97.4% | viability, T/C (second compound 3.16 µM, first compound 0.1 µM): 83.8% | viability, T/C (second compound 3.16 µM, first compound 0.316 µM): 78.8% | viability, T/C (second compound 3.16 µM, first compound 1 µM): 84.5% | viability, T/C (second compound 3.16 µM, first compound 3.16 µM): 73.5% | viability, T/C (second compound 3.16 µM, first compound 10 µM): 70.5% | viability, T/C (second compound 10 µM, first compound 0.0316 µM): 99.2% | viability, T/C (second compound 10 µM, first compound 0.1 µM): 89.8% | viability, T/C (second compound 10 µM, first compound 0.316 µM): 84.9% | viability, T/C (second compound 10 µM, first compound 1 µM): 77.5% | viability, T/C (second compound 10 µM, first compound 3.16 µM): 73.6% | viability, T/C (second compound 10 µM, first compound 10 µM): 72.2%

COc1cc2cc(C(=O)CCC(=O)O)sc2cc1OC
viability, T/C (compound 0.0316 µM): 99.2% and 104% and 92.9% | viability, T/C (compound 0.1 µM): 101% and 104% and 90.8% | viability, T/C (compound 0.316 µM): 93.2% and 88% and 110% | viability, T/C (compound 1 µM): 104% (2×) and 99.6% | viability, T/C (compound 3.16 µM): 94.7% and 99.9% and 99.6% | viability, T/C (compound 10 µM): 111% and 99.6% and 109% | IC50 (curve of compound): > 10 µM

CC1COCCN1c1cc(C2(O)CC3CCC(C2)O3)c2cnn(-c3ccn[nH]3)c2n1 (configuration not stated)
viability, T/C (compound 0.0316 µM): 18.3% and 19.4% and 19.9% | viability, T/C (compound 0.1 µM): 6.66% and 6.95% and 6.71% | viability, T/C (compound 0.316 µM): 5.68% and 5.24% and 4.27% | viability, T/C (compound 1 µM): 3.96% and 5.04% and 3.53% | viability, T/C (compound 3.16 µM): 6.45% and 6.44% and 3.52% | viability, T/C (compound 10 µM): 4.11% and 4.93% and 2.88% | IC50 (curve of compound): < 0.0316 µM

O=C(Nc1ccc(O)c(NS(=O)(=O)c2ccc(F)cc2)c1)c1ccc(-c2ccccc2)cc1
viability, T/C (compound 0.0316 µM): 111% and 102% and 103% | viability, T/C (compound 0.1 µM): 108% and 97.2% and 98.4% | viability, T/C (compound 0.316 µM): 107% and 98.6% and 103% | viability, T/C (compound 1 µM): 92.3% and 107% and 105% | viability, T/C (compound 3.16 µM): 109% and 101% and 98.1% | viability, T/C (compound 10 µM): 68.7% and 71.7% and 46.8% | IC50 (curve of compound): > 10 µM and 9.32 µM

CC1COCCN1c1cc(-c2ccnn2C)c2ccnc(-c3ccn[nH]3)c2n1 (configuration not stated)
viability, T/C (compound 0.0316 µM): 46.6% and 47.9% and 59.5% | viability, T/C (compound 0.1 µM): 10.6% and 13.9% and 11.1% | viability, T/C (compound 0.316 µM): 6.96% and 5.73% and 5.2% | viability, T/C (compound 1 µM): 5.32% and 5.61% and 4.36% | viability, T/C (compound 3.16 µM): 4.68% and 4.28% and 3.7% | viability, T/C (compound 10 µM): 4.66% and 4.53% and 3.78% | IC50 (curve of compound): < 0.0316 µM and 0.0396 µM
